In assay [1] the test system is phosphorylated AKT Ser473 (pAKT S473), mTORC2 activity, PC3 cells. As to the kind of experiment: mTOR target engagement assay, immunofluorescent cell-based, pAKT S473 readout (mTORC2 activity). Put shortly: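 After blocking, cells were stained overnight at 4 °C with anti-pAKT S473 antibody, then a fluorescent secondary; inhibition was read as reduced fluorescence intensity.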

For assay [2], the system named is phosphorylated 4E-BP1 Thr37/46 (p4E-BP1 Thr37/46), mTORC1 activity, PC3 cells. As to the kind of experiment: mTOR target engagement assay, immunofluorescent cell-based, p4E-BP1 Thr37/46 readout (mTORC1 activity). Put shortly:
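PTEN-mutant PC3 prostate cells were treated with serially diluted compound in 5% FBS F12 medium (0.25% DMSO) for ninety minutes at 37° C, glyoxal-fixed, then immunostained overnight at 4° C for p4E-BP1 Thr37/46 with an Alexa Fluor 488 secondary. IC50 came from four-parameter fits of fluorescence, DMSO-only wells defining 100%.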

[3] abbreviates: Homo sapiens, PC-3, PC3 cells, compound treatment ninety minutes at 37° C.
Setting [4] is: Homo sapiens, PC-3, PC3 cells, compound treatment ninety minutes at 37° C., read-out: p4E-BP1 Thr37/46 IC50.
Setting [5] is: Homo sapiens, PC-3, Table 3-1, PC3 cells.
Where [6] appears, read: Homo sapiens, PC-3, Table 3-1, PC3 cells, read-out: p4E-BP1 Thr37/46 IC50.
Setting [7] is: Homo sapiens, PC-3, PC3 cells, read-out: p4E-BP1 Thr37/46 IC50.

Results on 18 compounds are retold here after patent publication US9227971B2, “Pyrazolo[1,5-a]pyrimidine compounds as mTOR inhibitors” (Merck Sharp & Dohme Corp., priority 2010, dated 2016).

Read-outs that look alike come from different tables or passages of the source. A value given as a limit tells only on which side of the number the result lay.

Take `CC(=O)c1c([C@@H]2C[C@H]3CC[C@@H](C2)N3C(=O)c2nnc[nH]2)nc2c(-c3ccc(C4(O)COC4)nc3)cnn2c1N` [Compound 7.45, 1-(5-((1R,3s,5S)-8-(4H-1,2,4-triazole-3-carbonyl)-8-azabicyclo[3.2.1]octan-3-yl)-7-amino-3-(6-(3-hydroxyoxetan-3-yl)pyridin-3-yl)pyrazolo[1,5-a]pyrimidin-6-yl)ethanone]: the IC50 in assay [1] (Homo sapiens, PC-3, Table 7-8, PC3 cells) lay within 100 to 1000 nM; in assay [2] (Homo sapiens, PC-3, Table 7-8, PC3 cells, read-out: p4E-BP1 Thr37/46 IC50), 100 to 1000 nM.
`CC(=O)c1c([C@@H]2C[C@H]3CC[C@@H](C2)N3C(=O)c2nnc[nH]2)nc2c(-c3ccc(-c4cn(C)cn4)nc3)cnn2c1N` [Compound 1.1.108, 1-(5-((1R,3s,5S)-8-(4H-1,2,4-triazole-3-carbonyl)-8-azabicyclo[3.2.1]octan-3-yl)-7-amino-3-(6-(1-methyl-1H-imidazol-4-yl)pyridin-3-yl)pyrazolo[1,5-a]pyrimidin-6-yl)ethanone]: the IC50 in assay [1] (setting [3]) and in assay [2] (setting [4]) was 1000 to 10000 nM in each case.
For the compound `CS(=O)(=O)c1c([C@@H]2C[C@H]3CC[C@@H](C2)N3C(=O)c2nnc[nH]2)nc2c(-c3ccc(-c4nccs4)nc3)cnn2c1N` [Compound 3.24, ((1R,3s,5S)-3-(7-amino-6-(methylsulfonyl)-3-(6-(thiazol-2-yl)pyridin-3-yl)pyrazolo[1,5-a]pyrimidin-5-yl)-8-azabicyclo[3.2.1]octan-8-yl)(4H-1,2,4-triazol-3-yl)methanone], the IC50 in assay [1] (setting [5]) and in assay [2] (setting [6]) was 1 to 100 nM each time.
Consider `COCCOCc1ccc(-c2cnn3c(N)c(S(C)(=O)=O)c([C@@H]4C[C@H]5CC[C@@H](C4)N5C(=O)c4nnc[nH]4)nc23)cn1` [Compound 7.32, ((1R,3s,5S)-3-(7-amino-3-(6-((2-methoxyethoxy)methyl)pyridin-3-yl)-6-(methylsulfonyl)pyrazolo [1,5-a]pyrimidin-5-yl)-8-azabicyclo[3.2.1]octan-8-yl)(4H-1,2,4-triazol-3-yl)methanone], for which the IC50 in assay [1] (setting [3]) was over 10000 nM; in assay [2] (setting [4]), 1000 to 10000 nM.
`COc1ccc(-c2ccc(-c3cnn4c(N)c(C(C)=O)c([C@@H]5C[C@H]6CC[C@@H](C5)N6C(=O)c5nnc[nH]5)nc34)cn2)c(F)c1` [Compound 1.1.47, 1-(5-((1R,3s,5S)-8-(4H-1,2,4-triazole-3-carbonyl)-8-azabicyclo[3.2.1]octan-3-yl)-7-amino-3-(6-(2-fluoro-4-methoxyphenyl)pyridin-3-yl)pyrazolo[1,5-a]pyrimidin-6-yl)ethanone]: the IC50 in assay [1] (setting [3]) and in assay [2] (setting [4]) was 1 to 100 nM each time.
Take `CC(=O)c1c(C2CC3COCC(C2)N3C(=O)CO)nc2c(-c3ccc(-c4ccccc4)nc3)cnn2c1N` (stereo not drawn) [Compound 8.28, 1-(7-(6-acetyl-7-amino-3-(6-phenylpyridin-3-yl)pyrazolo[1,5-a]pyrimidin-5-yl)-3-oxa-9-azabicyclo[3.3.1]nonan-9-yl)-2-hydroxyethanone]: the IC50 in assay [1] (Homo sapiens, PC-3, PC3 cells) is 100 to 1000 nM; in assay [2] (setting [7]), 100 to 1000 nM.
For `CC(=O)c1c([C@@H]2C[C@H]3CC[C@@H](C2)N3C(=O)c2cn[nH]c2N)nc2c(-c3ccc(C(C)(C)O)nc3)cnn2c1N` [Compound 7.15, 1-(7-amino-5-((1R,3s,5S)-8-(5-amino-1H-pyrazole-4-carbonyl)-8-azabicyclo[3.2.1]octan-3-yl)-3-(6-(2-hydroxypropan-2-yl)pyridin-3-yl)pyrazolo[1,5-a]pyrimidin-6-yl)ethanone], the IC50 in assay [1] (setting [3]) and in assay [2] (setting [4]) was 100 to 1000 nM each time.
For the compound `CS(=O)(=O)c1c([C@@H]2C[C@H]3CC[C@@H](C2)N3C(=O)C(O)C(F)(F)F)nc2c(-c3ccc(-c4ccccc4)nc3)cnn2c1N` (stereo partly drawn) [Compound 3.15, 1-((1R,3s,5S)-3-(7-amino-6-(methylsulfonyl)-3-(6-phenylpyridin-3-yl)pyrazolo[1,5-a]pyrimidin-5-yl)-8-azabicyclo[3.2.1]octan-8-yl)-3,3,3-trifluoro-2-hydroxypropan-1-one], the IC50 in assay [1] (setting [5]) and in assay [2] (setting [6]) was 1000 to 10000 nM in each case.
Turning to `COc1ccc(-c2ccc(-c3cnn4c(N)c(C(C)=O)c([C@@H]5C[C@H]6CC[C@@H](C5)N6C(=O)c5nnc[nH]5)nc34)cn2)cc1C#N` [Compound 1.1.124, 5-(5-(5-((1R,3s,5S)-8-(4H-1,2,4-triazole-3-carbonyl)-8-azabicyclo[3.2.1]octan-3-yl)-6-acetyl-7-aminopyrazolo[1,5-a]pyrimidin-3-yl)pyridin-2-yl)-2-methoxybenzonitrile], the IC50 in assay [1] (setting [3]) and in assay [2] (setting [4]) was 100 to 1000 nM each time.
In the case of `CC(=O)c1c([C@@H]2C[C@H]3CC[C@@H](C2)N3C(=O)CO)nc2c(-c3ccc(-c4nc[nH]n4)nc3)cnn2c1N` [Compound 1.1.102, 1-((1R,3s,5S)-3-(3-(6-(1H-1,2,4-triazol-3-yl)pyridin-3-yl)-6-acetyl-7-aminopyrazolo[1,5-a]pyrimidin-5-yl)-8-azabicyclo[3.2.1]octan-8-yl)-2-hydroxyethanone], the IC50 in assay [1] (setting [3]) and in assay [2] (setting [4]) was 1 to 100 nM in each case.
Regarding `CC(=O)c1c([C@]2(O)C[C@H]3CC[C@@H](C2)N3C(=O)c2nnc[nH]2)nc2c(-c3ccc(-c4ccccc4)nc3)cnn2c1N` [Compound 8.21, 1-(7-amino-5-((1R,3r,5S)-3-hydroxy-8-(4H-1,2,4-triazole-3-carbonyl)-8-azabicyclo[3.2.1]octan-3-yl)-3-(6-phenylpyridin-3-yl)pyrazolo[1,5-a]pyrimidin-6-yl)ethanone], the IC50 in assay [1] (Homo sapiens, PC-3, PC3 cells) fell in the range of 1000 to 10000 nM; in assay [2] (setting [7]) it was 1000 to 10000 nM.
Regarding `Cc1n[nH]c(C(=O)N2[C@@H]3CC[C@H]2C[C@H](c2nc4c(-c5ccc(C6(O)CCC6)nc5)cnn4c(N)c2S(C)(=O)=O)C3)n1` [Compound 7.29, ((1R,3s,5S)-3-(7-amino-3-(6-(1-hydroxycyclobutyl)pyridin-3-yl)-6-(methylsulfonyl)pyrazolo[1,5-a]pyrimidin-5-yl)-8-azabicyclo[3.2.1]octan-8-yl)(3-methyl-1H-1,2,4-triazol-5-yl)methanone], the IC50 lay within 100 to 1000 nM in assay [1] (Table 7-2, PC3 cells) and 100 to 1000 nM in assay [2] (Table 7-2, PC3 cells, read-out: p4E-BP1 Thr37/46 IC50).
As for `Cc1nnc(C(=O)N2[C@@H]3CC[C@H]2C[C@H](c2nc4c(-c5ccc(-c6nc7c(s6)CCC7)nc5)cnn4c(N)c2S(C)(=O)=O)C3)[nH]1` [Compound 3.195, ((1R,3s,5S)-3-(7-amino-3-(6-(5,6-dihydro-4H-cyclopenta[d]thiazol-2-yl)pyridin-3-yl)-6-(methylsulfonyl)pyrazolo[1,5-a]pyrimidin-5-yl)-8-azabicyclo[3.2.1]octan-8-yl)(5-methyl-4H-1,2,4-triazol-3-yl)methanone], the IC50 in assay [1] (setting [5]) and in assay [2] (setting [6]) was 1000 to 10000 nM each time.
Take `CC(=O)c1c([C@@H]2C[C@H]3CC[C@@H](C2)N3C(=O)CF)nc2c(-c3ccc(-c4ncc[nH]4)nc3)cnn2c1N` [Compound 6.22, 1-((1R,3s,5S)-3-(3-(6-(1H-imidazol-2-yl)pyridin-3-yl)-6-acetyl-7-aminopyrazolo[1,5-a]pyrimidin-5-yl)-8-azabicyclo[3.2.1]octan-8-yl)-2-fluoroethanone]: the IC50 in assay [1] (Homo sapiens, PC-3, Table 6-1, PC3 cells) lay within 1 to 100 nM; in assay [2] (Homo sapiens, PC-3, read-out: p4E-BP1 Thr37/46 IC50), 1 to 100 nM.
Turning to `CS(=O)(=O)c1c([C@@H]2C[C@H]3CC[C@@H](C2)N3C(=O)CO)nc2c(-c3ccc(-c4ccc(F)cc4F)nc3)cnn2c1N` [Compound 3.128, 1-((1R,3s,5S)-3-(7-amino-3-(6-(2,4-difluorophenyl)pyridin-3-yl)-6-(methylsulfonyl)pyrazolo[1,5-a]pyrimidin-5-yl)-8-azabicyclo[3.2.1]octan-8-yl)-2-hydroxyethanone], the IC50 in assay [1] (setting [5]) and in assay [2] (setting [6]) was 100 to 1000 nM throughout.
Regarding `CS(=O)(=O)c1c([C@@H]2C[C@H]3CC[C@@H](C2)N3C(=O)CO)nc2c(-c3ccc(-c4ccccc4F)nc3)cnn2c1N` [Compound 3.132, 1-((1R,3a,5S)-3-(7-amino-3-(6-(2-fluorophenyl)pyridin-3-yl)-6-(methylsulfonyl)pyrazolo[1,5-a]pyrimidin-5-yl)-8-azabicyclo[3.2.1]octan-8-yl)-2-hydroxyethanone], the IC50 in assay [1] (setting [5]) is 1 to 100 nM; in assay [2] (setting [6]), 100 to 1000 nM.
On to `Nc1c(C2CC2)c([C@H]2CC3CC[C@H](C2)N3C(=O)c2nnc[nH]2)nc2c(-c3cnc4c(c3)OCCC4O)cnn12` (stereo partly drawn) [Compound 7.64, ((1R,3s,5S)-3-(7-amino-6-cyclopropyl-3-(4-hydroxy-3,4-dihydro-2H-pyrano[3,2-b]pyridin-7-yl)pyrazolo[1,5-a]pyrimidin-5-yl)-8-azabicyclo[3.2.1]octan-8-yl)(4H-1,2,4-triazol-3-yl)methanone], for which the IC50 was 100 to 1000 nM in assay [1] (Homo sapiens, PC-3, PC3 cells) and 100 to 1000 nM in assay [2] (setting [7]).
Consider `Cn1ccc(-c2ccc(-c3cnn4c(N)c(S(C)(=O)=O)c([C@@H]5C[C@H]6CC[C@@H](C5)N6C(=O)c5cn[nH]n5)nc34)cn2)n1` [Compound 3.174, ((1R,3s,5S)-3-(7-amino-3-(6-(1-methyl-1H-pyrazol-3-yl)pyridin-3-yl)-6-(methylsulfonyl)pyrazolo[1,5-a]pyrimidin-5-yl)-8-azabicyclo[3.2.1]octan-8-yl)(2H-1,2,3-triazol-4-yl)methanone], for which the IC50 in assay [1] (setting [5]) and in assay [2] (setting [6]) was 100 to 1000 nM in each case.
